# Assay results published in ChEMBL document CHEMBL3885881, “DrugMatrix”.
# Species on record: Rattus norvegicus
# Assay: DrugMatrix - Regimen: Daily Repeat
# Assay type: toxicity, organism-based, Sprague-Dawley
# Design: regimen Daily Repeat, gender Male, age 6-8 weeks
# Details: in vivo, po, route oral GAVAGE, vehicle 100 % WATER; for ABSOLUTE BASOPHIL / ABSOLUTE EOSINOPHIL / ABSOLUTE LYMPHOCYTE / ABSOLUTE MONOCYTE / ABSOLUTE SEGMENTED NEUTROPHIL / BASOPHIL / EOSINOPHIL / ERYTHROCYTE COUNT / HEMATOCRIT / HEMOGLOBIN / LEUKOCYTE COUNT / LYMPHOCYTE / MEAN CORPUSCULAR HEMOGLOBIN / MEAN CORPUSCULAR HEMOGLOBIN CONCENTRATION / MEAN CORPUSCULAR VOLUME / MONOCYTE / NEUTROPHIL / NUCLEATED RED BLOOD CELLS / PLATELET COUNT: tissue Blood; for ALANINE AMINOTRANSFERASE / ALBUMIN / ALKALINE PHOSPHATASE / ASPARTATE AMINOTRANSFERASE / BLOOD UREA NITROGEN / CARBON DIOXIDE / CHLORIDE / CHOLESTEROL / CREATINE PHOSPHOKINASE / CREATININE / GLUCOSE / LACTATE DEHYDROGENASE / LIPASE / PHOSPHORUS / POTASSIUM / SODIUM / TOTAL BILIRUBIN / TOTAL PROTEIN / URIC ACID: tissue Plasma
# [1] = 1 mg/kg, 72 h, dose level Low, time 3 day
# [2] = 1 mg/kg, 120 h, dose level Low, time 5 day
# [3] = 84 mg/kg, 72 h, dose level High, time 3 day
# [4] = 84 mg/kg, 120 h, dose level High, time 5 day
smiles,measurement,setting,value
Cc1nccn1CC1CCc2c(c3ccccc3n2C)C1=O (configuration not stated) [ONDANSETRON],ABSOLUTE BASOPHIL,[1],0 CELLS/uL
same,ABSOLUTE EOSINOPHIL,[1],0 CELLS/uL
same,ABSOLUTE LYMPHOCYTE,[1],12419.33 CELLS/uL
same,ABSOLUTE MONOCYTE,[1],325.33 CELLS/uL
same,ABSOLUTE SEGMENTED NEUTROPHIL,[1],1155.33 CELLS/uL
same,BASOPHIL,[1],0%
same,EOSINOPHIL,[1],0%
same,ERYTHROCYTE COUNT,[1],5.53 x10E6/uL
same,HEMATOCRIT,[1],34.87%
same,HEMOGLOBIN,[1],13.27 G/DL
same,LEUKOCYTE COUNT,[1],13.9 x10E3/uL
same,LYMPHOCYTE,[1],89.33%
same,MEAN CORPUSCULAR HEMOGLOBIN,[1],24 pg
same,MEAN CORPUSCULAR HEMOGLOBIN CONCENTRATION,[1],38.07 G/DL
same,MEAN CORPUSCULAR VOLUME,[1],63.03 fL
same,MONOCYTE,[1],2.33%
same,NEUTROPHIL,[1],8.33%
same,NUCLEATED RED BLOOD CELLS,[1],0 /100WBC
same,PLATELET COUNT,[1],1205.67 x10E3/uL
same,ALANINE AMINOTRANSFERASE,[1],50.33 u/L
same,ALBUMIN,[1],4.1 G/DL
same,ALKALINE PHOSPHATASE,[1],392.33 u/L
same,ASPARTATE AMINOTRANSFERASE,[1],92 u/L
same,BLOOD UREA NITROGEN,[1],15.67 mg/dL
same,CARBON DIOXIDE,[1],24.33 mmol/L
same,CHLORIDE,[1],104 MEQ/L
same,CHOLESTEROL,[1],74.33 mg/dL
same,CREATINE PHOSPHOKINASE,[1],345 u/L
same,CREATININE,[1],0.17 mg/dL
same,GLUCOSE,[1],165.33 mg/dL
same,LACTATE DEHYDROGENASE,[1],421 u/L
same,LIPASE,[1],9.67 u/L
same,PHOSPHORUS,[1],14.47 mg/dL
same,POTASSIUM,[1],6.65 MEQ/L
same,SODIUM,[1],147.47 MEQ/L
same,TOTAL BILIRUBIN,[1],0.17 mg/dL
same,TOTAL PROTEIN,[1],5.77 G/DL
same,URIC ACID,[1],1.8 mg/dL
same,ABSOLUTE BASOPHIL,[2],0 CELLS/uL
same,ABSOLUTE EOSINOPHIL,[2],0 CELLS/uL
same,ABSOLUTE LYMPHOCYTE,[2],15703.33 CELLS/uL
same,ABSOLUTE MONOCYTE,[2],57.67 CELLS/uL
same,ABSOLUTE SEGMENTED NEUTROPHIL,[2],1439 CELLS/uL
same,BASOPHIL,[2],0%
same,EOSINOPHIL,[2],0%
same,ERYTHROCYTE COUNT,[2],5.66 x10E6/uL
same,HEMATOCRIT,[2],36.67%
same,HEMOGLOBIN,[2],14.17 G/DL
same,LEUKOCYTE COUNT,[2],17.2 x10E3/uL
same,LYMPHOCYTE,[2],91.33%
same,MEAN CORPUSCULAR HEMOGLOBIN,[2],25.07 pg
same,MEAN CORPUSCULAR HEMOGLOBIN CONCENTRATION,[2],38.6 G/DL
same,MEAN CORPUSCULAR VOLUME,[2],64.9 fL
same,MONOCYTE,[2],0.33%
same,NEUTROPHIL,[2],8.33%
same,NUCLEATED RED BLOOD CELLS,[2],0 /100WBC
same,PLATELET COUNT,[2],1456 x10E3/uL
same,ALANINE AMINOTRANSFERASE,[2],55 u/L
same,ALBUMIN,[2],4.43 G/DL
same,ALKALINE PHOSPHATASE,[2],362 u/L
same,ASPARTATE AMINOTRANSFERASE,[2],77.33 u/L
same,BLOOD UREA NITROGEN,[2],17 mg/dL
same,CARBON DIOXIDE,[2],29 mmol/L
same,CHLORIDE,[2],100.33 MEQ/L
same,CHOLESTEROL,[2],72 mg/dL
same,CREATINE PHOSPHOKINASE,[2],162.67 u/L
same,CREATININE,[2],0.18 mg/dL
same,GLUCOSE,[2],160.33 mg/dL
same,LACTATE DEHYDROGENASE,[2],160.67 u/L
same,LIPASE,[2],10.33 u/L
same,PHOSPHORUS,[2],14.4 mg/dL
same,POTASSIUM,[2],6.83 MEQ/L
same,SODIUM,[2],146.07 MEQ/L
same,TOTAL BILIRUBIN,[2],0.2 mg/dL
same,TOTAL PROTEIN,[2],6.17 G/DL
same,URIC ACID,[2],1.7 mg/dL
same,ABSOLUTE BASOPHIL,[3],0 CELLS/uL
same,ABSOLUTE EOSINOPHIL,[3],113.33 CELLS/uL
same,ABSOLUTE LYMPHOCYTE,[3],15932.67 CELLS/uL
same,ABSOLUTE MONOCYTE,[3],298.67 CELLS/uL
same,ABSOLUTE SEGMENTED NEUTROPHIL,[3],1422 CELLS/uL
same,BASOPHIL,[3],0%
same,EOSINOPHIL,[3],0.67%
same,ERYTHROCYTE COUNT,[3],5.63 x10E6/uL
same,HEMATOCRIT,[3],35.6%
same,HEMOGLOBIN,[3],14.17 G/DL
same,LEUKOCYTE COUNT,[3],17.77 x10E3/uL
same,LYMPHOCYTE,[3],90%
same,MEAN CORPUSCULAR HEMOGLOBIN,[3],25.3 pg
same,MEAN CORPUSCULAR HEMOGLOBIN CONCENTRATION,[3],39.83 G/DL
same,MEAN CORPUSCULAR VOLUME,[3],63.53 fL
same,MONOCYTE,[3],1.67%
same,NEUTROPHIL,[3],7.67%
same,NUCLEATED RED BLOOD CELLS,[3],0 /100WBC
same,PLATELET COUNT,[3],1296 x10E3/uL
same,ALANINE AMINOTRANSFERASE,[3],62.67 u/L
same,ALBUMIN,[3],4.27 G/DL
same,ALKALINE PHOSPHATASE,[3],366.67 u/L
same,ASPARTATE AMINOTRANSFERASE,[3],100.67 u/L
same,BLOOD UREA NITROGEN,[3],14.67 mg/dL
same,CARBON DIOXIDE,[3],26.67 mmol/L
same,CHLORIDE,[3],101.33 MEQ/L
same,CHOLESTEROL,[3],73.67 mg/dL
same,CREATINE PHOSPHOKINASE,[3],312.67 u/L
same,CREATININE,[3],0.28 mg/dL
same,GLUCOSE,[3],150 mg/dL
same,LACTATE DEHYDROGENASE,[3],488.67 u/L
same,LIPASE,[3],9.67 u/L
same,PHOSPHORUS,[3],13.83 mg/dL
same,POTASSIUM,[3],7.1 MEQ/L
same,SODIUM,[3],145.17 MEQ/L
same,TOTAL BILIRUBIN,[3],0.17 mg/dL
same,TOTAL PROTEIN,[3],5.87 G/DL
same,URIC ACID,[3],1.77 mg/dL
same,ABSOLUTE BASOPHIL,[4],0 CELLS/uL
same,ABSOLUTE EOSINOPHIL,[4],0 CELLS/uL
same,ABSOLUTE LYMPHOCYTE,[4],12972 CELLS/uL
same,ABSOLUTE MONOCYTE,[4],0 CELLS/uL
same,ABSOLUTE SEGMENTED NEUTROPHIL,[4],828 CELLS/uL
same,BASOPHIL,[4],0%
same,EOSINOPHIL,[4],0%
same,ERYTHROCYTE COUNT,[4],5.39 x10E6/uL
same,HEMATOCRIT,[4],33.4%
same,HEMOGLOBIN,[4],13.9 G/DL
same,LEUKOCYTE COUNT,[4],13.8 x10E3/uL
same,LYMPHOCYTE,[4],94%
same,MEAN CORPUSCULAR HEMOGLOBIN,[4],25.8 pg
same,MEAN CORPUSCULAR HEMOGLOBIN CONCENTRATION,[4],41.6 G/DL
same,MEAN CORPUSCULAR VOLUME,[4],61.9 fL
same,MONOCYTE,[4],0%
same,NEUTROPHIL,[4],6%
same,NUCLEATED RED BLOOD CELLS,[4],0 /100WBC
same,PLATELET COUNT,[4],1460 x10E3/uL
same,ALANINE AMINOTRANSFERASE,[4],63 u/L
same,ALBUMIN,[4],4.2 G/DL
same,ALKALINE PHOSPHATASE,[4],265 u/L
same,ASPARTATE AMINOTRANSFERASE,[4],62 u/L
same,BLOOD UREA NITROGEN,[4],20 mg/dL
same,CARBON DIOXIDE,[4],30 mmol/L
same,CHLORIDE,[4],103 MEQ/L
same,CHOLESTEROL,[4],69 mg/dL
same,CREATINE PHOSPHOKINASE,[4],151 u/L
same,CREATININE,[4],0.29 mg/dL
same,GLUCOSE,[4],150 mg/dL
same,LACTATE DEHYDROGENASE,[4],89 u/L
same,LIPASE,[4],10 u/L
same,PHOSPHORUS,[4],11.8 mg/dL
same,POTASSIUM,[4],6.81 MEQ/L
same,SODIUM,[4],145.9 MEQ/L
same,TOTAL BILIRUBIN,[4],0.1 mg/dL
same,TOTAL PROTEIN,[4],6.2 G/DL
same,URIC ACID,[4],1.4 mg/dL
